Experimental data: US20240287138A1, “CYCLIC PEPTIDES FOR INHIBITING TNF RECEPTOR 1 ACTIVITY” (Merck Sharp & Dohme LLC, priority 2023, published 2024)
pIC50, pKd: −log10 of the molar value. Like-named read-outs stand apart in the source and are kept apart here. Numbered stars: 1 amine (or outer) side, 2 acyl side, 3 side chain; on linkers, the order of the positions; unused ones are H or OH. Square brackets hold non-standard residues; d marks the D form. Peptide text beside a SMILES is read from it. * marks the point of attachment. Ala(2-carboxypyrimidin-5-yl) = N[C@@H](Cc1cnc(C(=O)O)nc1)C(=O)O; Trp(βS-Me,7-OMe) = COc1cccc2c([C@H](C)[C@H](N)C(=O)O)c[nH]c12; dPro(trans-4-NMe3+) = C[N+](C)(C)[C@@H]1CN[C@@H](C(=O)O)C1; X51 = CCC[C@@H](c1c[nH]c2ccccc12)[C@H](N[*:1])C(=O)[*:2]; Phe(4-SO2NH2) = N[C@@H](Cc1ccc(S(N)(=O)=O)cc1)C(=O)O; Ala(indazol-1-yl) = N[C@@H](Cn1ncc2ccccc21)C(=O)O; Trp(7-CN) = N#Cc1cccc2c(C[C@H](N)C(=O)O)c[nH]c12; Trp(7-Cl) = N[C@@H](Cc1c[nH]c2c(Cl)cccc12)C(=O)O; Ala(pyrimidin-5-yl) = N[C@@H](Cc1cncnc1)C(=O)O; Phe(3-CONH2) = NC(=O)c1cccc(C[C@H](N)C(=O)O)c1; Phe(4-CONH2) = NC(=O)c1ccc(C[C@H](N)C(=O)O)cc1; Phe(4-COOH) = N[C@@H](Cc1ccc(C(=O)O)cc1)C(=O)O; Trp(7-aza) = N[C@@H](Cc1c[nH]c2ncccc12)C(=O)O; X60 = NC(=O)[C@H](O)[C@H](N[*:1])C(=O)[*:2]; X63 = O=C([C@@H]1CC[C@H](O)CN1[*:1])[*:2]; dPro(4S-NH2) = N[C@@H]1CN[C@@H](C(=O)O)C1; Pip(5R-OH) = O=C(O)[C@@H]1CC[C@@H](O)CN1; X1 = O=C([C@@H]1CC[C@H](N[*:1])C1)[*:2]; 4Pal = N[C@@H](Cc1ccncc1)C(=O)O; dHyp = O=C(O)[C@H]1C[C@H](O)CN1; αMeS = C[C@](N)(CO)C(=O)O; Carboxymethyl = O=C(O)C*; Nle = CCCC[C@H](N)C(=O)O; Sar = CNCC(=O)O

How the values were obtained:
[1] = target: T1, human soluble TNFR1 (sTNFR1) (Homo sapiens, UniProt P19438); assay: Human sTNFR1-peptide displacement assay (LanthaScreen Eu TR-FRET binding assay)
T1 construct: made in house; host or cells: Sf21 (baculovirus)
T1 sequence (P19438 with tags, fused parts or gaps): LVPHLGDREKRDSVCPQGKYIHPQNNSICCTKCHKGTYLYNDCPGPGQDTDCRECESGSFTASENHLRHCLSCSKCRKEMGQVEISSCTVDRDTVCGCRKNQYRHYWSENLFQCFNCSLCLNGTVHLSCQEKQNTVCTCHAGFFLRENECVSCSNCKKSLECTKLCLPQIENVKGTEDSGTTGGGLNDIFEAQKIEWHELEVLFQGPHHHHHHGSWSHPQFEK
How it was run: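 Readout is the 665/615 nm TR-FRET ratio (Eu anti-His donor, streptavidin-Alexa647 acceptor), normalized to DMSO and saturating displacer, fit by Morrison-based five-parameter logistic for Kd^app. His-tagged sTNFR1 (1-211) prebound to 100 nM biotinylated peptide SEQ ID NO.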

[2] = target: T2, TNFα-induced NF-κB signal transduction pathway (TNFR1 signaling) in THP-1 cells (Homo sapiens, UniProt P19438); assay: THP-1 Lucia NF-κB reporter cell assay, inhibition of TNFα-induced NF-κB signaling; assay type: cell-based; details: THP-1 NF-κB Lucia reporter cells, 10 ng/mL TNFα, 16-18 h, secreted luciferase, read-out: THP-1 IC50
T2 sequence (P19438 30-455): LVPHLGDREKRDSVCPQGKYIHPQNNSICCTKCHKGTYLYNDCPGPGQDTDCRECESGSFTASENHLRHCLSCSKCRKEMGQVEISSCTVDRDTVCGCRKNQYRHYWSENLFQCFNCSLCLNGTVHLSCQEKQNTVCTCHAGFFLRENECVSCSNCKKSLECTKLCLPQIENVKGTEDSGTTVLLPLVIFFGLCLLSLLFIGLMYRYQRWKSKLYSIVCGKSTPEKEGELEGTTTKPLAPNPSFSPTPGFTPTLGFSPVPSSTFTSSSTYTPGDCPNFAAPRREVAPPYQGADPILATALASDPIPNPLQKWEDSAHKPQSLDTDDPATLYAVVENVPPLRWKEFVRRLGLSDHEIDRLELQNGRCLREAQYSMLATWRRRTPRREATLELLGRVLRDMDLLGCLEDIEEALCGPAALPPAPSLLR
How it was run: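 IC50 from a 4-parameter logistic fit of secreted luciferase luminescence (QUANTI-Luc), normalised to min/max controls. Reporter THP-1 cells were exposed to peptides for 1 h at 37 °C before 10 ng/mL TNFα (final) was added overnight (16–18 h).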

[3] = displacement of biotinylated peptide SEQ ID NO. 1 from sTNFR1, 20 point titration, 5-parameter fit based on Morrison equation (tight binding), read-out: TR-FRET Kd^app

## CCCC[C@@H]1NC(=O)[C@@H]2CC[C@@H](C2)NC(=O)[C@H]([C@@H](CCC)c2c[nH]c3ccccc23)NC(=O)CN(C)C(=O)[C@H](Cc2ccc(C(=O)O)cc2)NC(=O)[C@H](Cc2ccc(C(N)=O)cc2)NC(=O)[C@](C)(CO)NC(=O)[C@H](Cc2c[nH]c3c(Cl)cccc23)NC(=O)[C@H](Cc2ccc(C(=O)O)cc2)NC(=O)[C@H](CC(N)=O)NC(=O)[C@H]2C[C@H](O)CN2C(=O)[C@H](Cc2c[nH]c3ccccc23)NC(=O)[C@@H]2CC[C@@H](O)CN2C(=O)[C@H](Cc2ccncc2)NC1=O [SEQ ID NO. 27] (cyclo([4Pal][Pip(5R-OH)]W[dHyp]N[Phe(4-COOH)][Trp(7-Cl)][αMeS][Phe(4-CONH2)][Phe(4-COOH)][Sar][X51][X1][Nle]))
[1]
  pKd: 10.00
[2]
  pIC50: 9.30

## CCCC[C@@H]1NC(=O)[C@@H]2CC[C@@H](C2)NC(=O)[C@H]([C@@H](C)c2c[nH]c3c(OC)cccc23)NC(=O)CN(C)C(=O)[C@H](Cc2ccc(C(=O)O)cc2)NC(=O)[C@H](Cc2ccc(S(N)(=O)=O)cc2)NC(=O)[C@](C)(CO)NC(=O)[C@H](Cc2c[nH]c3c(C#N)cccc23)NC(=O)[C@H](Cc2ccncc2)NC(=O)[C@H](CC(N)=O)NC(=O)[C@H]2C[C@H](OCC(=O)O)CN2C(=O)[C@H](Cc2c[nH]c3ncccc23)NC(=O)[C@@H]2CC[C@@H](O)CN2C(=O)[C@H](Cc2ccncc2)NC1=O [SEQ ID NO. 31] (cyclo([4Pal][Trp(7-CN)][αMeS][Phe(4-SO2NH2)][Phe(4-COOH)][Sar][Trp(βS-Me,7-OMe)][X1][Nle][4Pal][Pip(5R-OH)][Trp(7-aza)][dHyp](Carboxymethyl)N))
[1]; [3]
  pKd: 10.40
[2]
  pIC50: 9.40

## CCCC[C@@H]1NC(=O)[C@@H]2CC[C@@H](C2)NC(=O)[C@H]([C@@H](C)c2c[nH]c3c(OC)cccc23)NC(=O)CN(C)C(=O)[C@H](Cc2ccc(OCC(=O)O)cc2)NC(=O)[C@H](Cc2ccc(S(N)(=O)=O)cc2)NC(=O)[C@](C)(CO)NC(=O)[C@H](Cc2c[nH]c3c(C#N)cccc23)NC(=O)[C@H](Cc2ccc(OCC(=O)O)cc2)NC(=O)[C@H](CC(N)=O)NC(=O)[C@H]2C[C@H](N)CN2C(=O)[C@H](Cc2c[nH]c3ccccc23)NC(=O)[C@@H]2CC[C@@H](O)CN2C(=O)[C@H](Cc2cncnc2)NC1=O [SEQ ID NO. 37] (cyclo(NY(Carboxymethyl)[Trp(7-CN)][αMeS][Phe(4-SO2NH2)]Y(Carboxymethyl)[Sar][Trp(βS-Me,7-OMe)][X1][Nle][Ala(pyrimidin-5-yl)][Pip(5R-OH)]W[dPro(4S-NH2)]))
[1]
  pKd: 10.05
[2]
  pIC50: 9.22

## CCCC[C@@H]1NC(=O)[C@@H]2CC[C@@H](C2)NC(=O)[C@H]([C@@H](C)c2c[nH]c3c(OC)cccc23)NC(=O)CN(C)C(=O)[C@H](Cc2ccc(OCC(=O)O)cc2)NC(=O)[C@H](Cc2ccc(S(N)(=O)=O)cc2)NC(=O)[C@](C)(CO)NC(=O)[C@H](Cc2c[nH]c3c(C#N)cccc23)NC(=O)[C@H](Cc2ccc(OCC(=O)O)cc2)NC(=O)[C@H](CC(N)=O)NC(=O)[C@H]2C[C@H]([N+](C)(C)C)CN2C(=O)[C@H](Cn2ncc3ccccc32)NC(=O)[C@@H]2CC[C@@H](O)CN2C(=O)[C@H](Cc2cncnc2)NC1=O [SEQ ID NO. 43] (cyclo(NY(Carboxymethyl)[Trp(7-CN)][αMeS][Phe(4-SO2NH2)]Y(Carboxymethyl)[Sar][Trp(βS-Me,7-OMe)][X1][Nle][Ala(pyrimidin-5-yl)][Pip(5R-OH)][Ala(indazol-1-yl)][dPro(trans-4-NMe3+)]))
[1]
  pKd: 10.05
[2]
  pIC50: 9.22

## CCCC[C@@H]1NC(=O)[C@@H]2CC[C@@H](C2)NC(=O)[C@H]([C@@H](C)c2c[nH]c3c(OC)cccc23)NC(=O)CN(C)C(=O)[C@H](Cc2cccc(C(N)=O)c2)NC(=O)[C@H](Cc2ccc(C(N)=O)cc2)NC(=O)[C@](C)(CO)NC(=O)[C@H](Cc2c[nH]c3c(Cl)cccc23)NC(=O)[C@H](Cc2ccncc2)NC(=O)[C@H](CC(N)=O)NC(=O)[C@H]2C[C@H](O)CN2C(=O)[C@H](Cc2c[nH]c3ccccc23)NC(=O)[C@@H]2CC[C@H](O)CN2C(=O)[C@H](Cc2ccncc2)NC1=O [SEQ ID NO. 67] (cyclo([4Pal][Trp(7-Cl)][αMeS][Phe(4-CONH2)][Phe(3-CONH2)][Sar][Trp(βS-Me,7-OMe)][X1][Nle][4Pal][X63]W[dHyp]N))
[1]
  pKd: 9.70
[2]
  pIC50: 9.40

## CCCC[C@@H]1NC(=O)[C@@H]2CC[C@@H](C2)NC(=O)[C@H]([C@@H](C)c2c[nH]c3c(OC)cccc23)NC(=O)CN(C)C(=O)[C@H](Cc2ccc(C(=O)O)cc2)NC(=O)[C@H](Cc2ccc(C(N)=O)cc2)NC(=O)[C@](C)(CO)NC(=O)[C@H](Cc2c[nH]c3c(C#N)cccc23)NC(=O)[C@H](Cc2ccc(C(=O)O)cc2)NC(=O)[C@H](CC(N)=O)NC(=O)[C@H]2C[C@H](OCC(=O)O)CN2C(=O)[C@H](Cc2c[nH]c3ncccc23)NC(=O)[C@@H]2CC[C@@H](O)CN2C(=O)[C@H](Cc2ccncc2)NC1=O [SEQ ID NO. 77] (cyclo([4Pal][Pip(5R-OH)][Trp(7-aza)][dHyp](Carboxymethyl)N[Phe(4-COOH)][Trp(7-CN)][αMeS][Phe(4-CONH2)][Phe(4-COOH)][Sar][Trp(βS-Me,7-OMe)][X1][Nle]))
[1]; [3]
  pKd: 10.22
[2]; listed as 77
  pIC50: 9.22

## CCCC[C@@H]1NC(=O)[C@@H]2CC[C@@H](C2)NC(=O)[C@H]([C@@H](C)c2c[nH]c3c(OC)cccc23)NC(=O)CN(C)C(=O)[C@H](Cc2ccc(C(=O)O)cc2)NC(=O)[C@H](Cc2ccc(C(N)=O)cc2)NC(=O)[C@](C)(CO)NC(=O)[C@H](Cc2c[nH]c3c(C#N)cccc23)NC(=O)[C@H](Cc2ccncc2)NC(=O)[C@H]([C@@H](O)C(N)=O)NC(=O)[C@H]2C[C@H](O)CN2C(=O)[C@H](Cc2c[nH]c3ccccc23)NC(=O)[C@@H]2CC[C@@H](O)CN2C(=O)[C@H](Cc2ccncc2)NC1=O [SEQ ID NO. 78] (cyclo([4Pal][Trp(7-CN)][αMeS][Phe(4-CONH2)][Phe(4-COOH)][Sar][Trp(βS-Me,7-OMe)][X1][Nle][4Pal][Pip(5R-OH)]W[dHyp][X60]))
[1]
  pKd: 10.30
[2]
  pIC50: 9.15

## CCCC[C@@H]1NC(=O)[C@@H]2CC[C@@H](C2)NC(=O)[C@H]([C@@H](C)c2c[nH]c3c(OC)cccc23)NC(=O)CN(C)C(=O)[C@H](Cc2ccc(C(=O)O)cc2)NC(=O)[C@H](Cc2ccc(C(N)=O)cc2)NC(=O)[C@](C)(CO)NC(=O)[C@H](Cc2c[nH]c3c(Cl)cccc23)NC(=O)[C@H](Cc2cnc(C(=O)O)nc2)NC(=O)[C@H](CC(N)=O)NC(=O)[C@H]2C[C@H](O)CN2C(=O)[C@H](Cc2c[nH]c3ccccc23)NC(=O)[C@@H]2CC[C@@H](O)CN2C(=O)[C@H](Cc2ccncc2)NC1=O [SEQ ID NO. 88] (cyclo([4Pal][Pip(5R-OH)]W[dHyp]N[Ala(2-carboxypyrimidin-5-yl)][Trp(7-Cl)][αMeS][Phe(4-CONH2)][Phe(4-COOH)][Sar][Trp(βS-Me,7-OMe)][X1][Nle]))
[1]
  pKd: 9.70
[2]
  pIC50: 8.72
